In PMC3537624, “Functional Characterization of the Short Neuropeptide F Receptor in the Desert Locust, Schistocerca gregaria” (PLoS ONE, 2013):
“Also recorded” adds a separate entry of the source. Where a SMILES comes first, the peptide text is derived from it.

Tests used:
Schgr-sNPFR [1] = experiment: Calcium assay, aequorin bioluminescence in CHO-WTA11-Schgr-sNPFR cells (promiscuous Gα16); format: cell-based, Schistocerca gregaria; conditions: for EC50: CHO-WTA11 cells with Gα16, aequorin/coelenterazine h luminescence, 30 s read, ± (95% confidence interval), three independent measurements in duplicate
Experimental: (§1) Three cell lines were used in this study. General receptor studies were performed in Chinese Hamster Ovary (CHO)-WTA11 cells, a clone of CHO cells stably coexpressing the promiscuous Gα16 and apoaequorin. To determine the mode of downstream signalling, we used either CHO-PAM28 cells, a clone of CHO cells expressing apoaequorin but not the promiscuous Gα16, or Human Embryonic Kidney (HEK) 293T cells, expressing neither Gα16 nor apoaequorin. All cell lines used in this study were provided by Prof. Dr. M. Parmentier and Dr. M. Dethreux (Université Libre de Bruxelles) and Euroscreen S.A., Belgium.
(§2) The cells were cultured in monolayer, in Dulbecco’s Modified Eagle Medium Nutrient Mixture F12-Ham (DMEM/F12, Invitrogen) containing 10% fetal calf serum (Invitrogen), 100 IU/ml penicillin/streptomycin (Invitrogen). For the CHO-WTA11 cells, 250 µg/ml Zeocin™ (Invitrogen) was added to the medium, while to the medium of CHO-PAM28 cells, 5 µg/ml Puromycin (Invitrogen) was added. The cells were grown at 37°C, with a constant supply of 5% CO2 and split every 3 days.
Transfections with either Schgr-sNPFR/pcDNA3.1D or empty pcDNA3.1D vector were performed in T75 flasks at ca. 60% confluency. […]
In the calcium-assays, CHO-WTA11 or CHO-PAM28 cells expressing the Schgr-sNPFR were detached two days after transfection, counted using the NucleoCounter® NC-100™ (Chemometec), and resuspended in DMEM/BSA (DMEM/F12, 10 mM HEPES, 0.1% bovine serum albumin) at a concentration of 5×10^5 cells/ml. […]
After incubation, the cell suspension was injected in wells containing a peptide solution, dissolved in 50 µl BSA medium. […] Light emission was monitored using a Mithras LB 940 Microplate Reader (Berthold technologies).
(§3) Data generated in these experiments were analysed using GraphPad Prism 5 (GraphPad Software).
As putative ligands for the cloned Schistocerca gregaria sNPF receptor, Schgr-sNPF (SNRSPSLRLRFa), Schgr-sNPF^4−11 (SPSLRLRFa) and Schgr-trNPF (YSQVARPRFa) were tested. […] For each of these peptides, the dose-dependent activation of the Schgr-sNPFR was studied in CHO-WTA11 cells and EC50 values were calculated.

adult locusts = experiment: Peptide injection feeding assay (food uptake); format: in vivo, Schistocerca gregaria; conditions: for reduction of food uptake: 2 µl of 100 µg/ml injected dorsally, cabbage for one hour, vs saline, n = 20; for effect on food uptake (result in words): normalized to body mass, mean, n = 20, ANOVA with Tukey
Experimental: The desert locusts used in this study were all gregarious adult animals. They were reared under crowded conditions at a constant temperature (32±1°C) and photoperiod (14 h). The locusts were kept at high density (>200 locusts per cage) and fed daily with cabbage and dry oat flakes. In an effort to normalize feeding responses, locusts used in feeding experiments were placed in separate cages and placed on a controlled dietary regimen one week prior to the assay. Locusts were fed for two hours each day (9 h–10 h, 16 h–17 h).
At 9 AM, 2 µl of a 100 µg/ml peptide solution (experimental condition) or saline solution (negative control) was injected dorsally between the first and second abdominal segments using a 710 RN injector (Hamilton). Pieces of cabbage were weighed in advance and presented to the locusts for one hour, after which all animals had stopped feeding. In parallel, similar pieces of cabbage were put in empty cages during the period of the experiment. The relative weight loss of these pieces was used to estimate the effect of evaporation All cabbage leafs were weighed after the feeding assay, total food uptake was calculated and corrected for the weight that was lost by evaporation. The results were analysed using GraphPad Prism 5 (GraphPad Software).

Schgr-sNPFR [2] = experiment: Calcium assay, aequorin bioluminescence in CHO-PAM28-Schgr-sNPFR cells (no Gα16); format: cell-based, Schistocerca gregaria; conditions: for EC50: CHO-PAM28 cells without Gα16, aequorin bioluminescence, three independent measurements in duplicate; for maximum response (aequorin bioluminescence): Schgr-sNPF and Schgr-sNPF^4−11 compared with each other
Experimental: as §1, §2
(§4) Transfections with either Schgr-sNPFR/pcDNA3.1D or empty pcDNA3.1D vector were performed in T75 flasks at ca. 60% confluency. Transfection reagent was prepared by combining 2,5 ml of DMEM/F12, 5 µg of the plasmid DNA and 12.5 µl of PLUS™ Reagent (Invitrogen). After storing the medium at room temperature for 5 minutes, 30 µl Lipofectamine™ LTX (Invitrogen) was added and the transfection medium was added dropwise into 3 ml of culture medium after 30 minutes incubation at room temperature. HEK 293T cells were cotransfected with a reporter construct, consisting of a luciferase gene situated downstream of a cyclic AMP (cAMP) response element (CRE) and promoter.
In the calcium-assays, CHO-WTA11 or CHO-PAM28 cells expressing the Schgr-sNPFR were detached two days after transfection, counted using the NucleoCounter® NC-100™ (Chemometec), and resuspended in DMEM/BSA (DMEM/F12, 10 mM HEPES, 0.1% bovine serum albumin) at a concentration of 5×10^5 cells/ml. Cells where then shielded from light and incubated for 4 h with 5 µM coelenterazine h (Invitrogen), allowing the aequorin holoenzyme to be reconstituted.
After incubation, the cell suspension was injected in wells containing a peptide solution, dissolved in 50 µl BSA medium. After 30 s, 50 µl of 0.1% Triton X-100 was injected, lysing the cells and thus serving as an internal reference. Wells containing no peptide but DMEM/BSA were used as a negative control while wells containing 1 µM ATP were used as a positive control. Light emission was monitored using a Mithras LB 940 Microplate Reader (Berthold technologies).
as §3
These two peptides were then further studied with respect to their mode of intracellular signalling. Cell based assays were performed using a CHO-PAM28 cell line, expressing apoaequorin, allowing the detection of increases in the intracellular concentration of calcium ions. […] The calculated EC50 values were both in the nanomolar range.

Schgr-sNPFR [3] = experiment: cAMP assay, CRE-luciferase bioluminescence in HEK-293T-Schgr-sNPFR cells; format: cell-based, Schistocerca gregaria; conditions: HEK 293T cells; for IC50: 200 µM IBMX + NKH 477, 3 h at 37°C, three independent measurements in duplicate, read-out: IC50 (inhibition of CRE-luciferase reporter expression); for inhibition of the reporter expression (result in words): CRE-luciferase, 200 µM IBMX + NKH 477
Experimental: as §1, §2, §4
HEK 293T cells, cotransfected with the Schgr-sNPFR/pcDNA3.1 vector and the CRE-luciferase construct, were detached two days after transfection, centrifuged and resuspended to a concentration of 10^6 cells/ml in DMEM/F12 containing 200 µM 3-isobutyl-1-methylxanthine (IBMX; Sigma-Aldrich). Fifty µl of this suspension was introduced into in each well of a 96-well-plate. When studying stimulatory effects, peptides were dissolved in DMEM/F12 containing 200 µM IBMX. When studying inhibitory effects, these peptides were dissoved in DMEM/F12 supplemented with 200 µM IBMX and 20 µM NKH 477 (a water-soluble analogue of forskolin; Sigma-Aldrich). […] Light emission, resulting from the luciferase activity, was measured for 5 s/well using the Mithras LB 940 Microplate Reader.
as §3
The possible effect of receptor activation on intracellular cyclic AMP (cAMP) production was analysed in HEK 293T cells that were cotransfected with a CRE-luciferase reporter construct.

SNRSPSLRLRFa [Schgr-sNPF, Schistocerca gregaria short neuropeptide F, […]a]
EC50 (Schgr-sNPFR [1]): 2.05 ± 0.63 nM
reduction of food uptake (adult locusts): 30%
effect on food uptake (result in words) (adult locusts; ** p<0.01, *** p<0.001): significant decrease of food uptake
effect on food uptake (result in words) (adult locusts; ** p<0.01, *** p<0.001, listed as sNPF): significant decrease in food uptake
increase of aequorin bioluminescence (Schgr-sNPFR [2]; CHO-PAM28 cells): dose-dependent increase of aequorin bioluminescence
EC50 (Schgr-sNPFR [2]): 3.28 ± 2.2 nM
maximum response (aequorin bioluminescence) (Schgr-sNPFR [2]; CHO-PAM28 cells): markedly lower than that of Schgr-sNPF^4−11
agonist character with respect to calcium response (Schgr-sNPFR [2]; CHO-PAM28 cells, maximum response lower than that of Schgr-sNPF^4−11): partial agonist
IC50 (Schgr-sNPFR [3]): 0.0763 ± 0.0261 nM
inhibition of the reporter expression (result in words) (Schgr-sNPFR [3]): highly effective

YSQVARPRFa [Schgr-trNPF, truncated form of Schgr-neuropeptide F, …a]
activation of the receptor (result in words) (Schgr-sNPFR [1]; CHO-WTA11 cells, aequorin bioluminescence): No dose-dependent response was observed; also recorded: not responsive

CC(C)C[C@H](NC(=O)[C@H](CCCNC(=N)N)NC(=O)[C@H](CC(C)C)NC(=O)[C@H](CO)NC(=O)[C@@H]1CCCN1C(=O)[C@@H](N)CO)C(=O)N[C@@H](CCCNC(=N)N)C(=O)N[C@@H](Cc1ccccc1)C(N)=O [Schgr-sNPF^4−11] (H-SPSLRLRF-NH2)
EC50 (Schgr-sNPFR [1]): 5.56 ± 1.8 nM
reduction of food uptake (adult locusts): 37%
effect on food uptake (result in words) (adult locusts; ** p<0.01, *** p<0.001): significant decrease of food uptake
effect on food uptake (result in words) (adult locusts; ** p<0.01, *** p<0.001, listed as sNPF^4−11): significant decrease in food uptake
increase of aequorin bioluminescence (Schgr-sNPFR [2]; CHO-PAM28 cells): dose-dependent increase of aequorin bioluminescence
EC50 (Schgr-sNPFR [2]): 32.2 ± 18.2 nM
maximum response (aequorin bioluminescence) (Schgr-sNPFR [2]; CHO-PAM28 cells): markedly higher than those obtained with Schgr-sNPF
IC50 (Schgr-sNPFR [3]): 0.0955 ± 0.0323 nM
inhibition of the reporter expression (result in words) (Schgr-sNPFR [3]): highly effective
